Key:
[1] = tested on: PPC-1 cells; assay: Clonal and sphere formation assays; type: cell-based, human
Method: For clonal assays, cultured prostate cancer cells or human prostate cancer cells freshly purified from patient primary tumors were plated at a clonal density (i.e., 100 cells/well) in a 6-well plate. The number of holoclones (33) was counted several days later. For Matrigel-based sphere formation assays, cells in medium were plated (generally 1,000 cells/well) in Matrigel at 1:1 ratio in a total of 100 μl in 96-well plates. Spheres were enumerated 1-2 weeks after plating. For floating sphere formation assays, cells were plated in serum-free epithelial basal medium (PrEBM) supplemented with B27 (Invitrogen), and 20 ng/ml EGF and bFGF in ultra-low attachment (ULA) plate. Floating spheres that arose in 1-2 weeks were counted. For all these experiments, a minimum of triplicate wells was run for each condition and repeat experiments were performed when necessary and feasible.

[2] = tested on: PPC-1 cells; assay: In vivo tumor regeneration assay; parameters: species or system NOD/SCID mice; conditions: miR-141 over-expression in bulk cells; 100,000 cells per injection
Method: (§1) Average % of CD44^+ cells (as determined by flow analysis; n=3-5) is indicated for each cell type (UD, undetectable). […] Purified CD44^+ Du145 cells were transfected with NC or miR-141 oligos (30 nM, 48 h) and then plated for clonal (1D & 1E) and sphere (1F) assays. Bars represent mean±SD. *, P<0.05; **, P<0.01. […] Shown are tumor images, cell numbers injected (100,000 cells per injection for all models), site of injection (s.c, subcutaneously) and days (d) when tumors were harvested. Tumor weight and incidences with corresponding P values are also indicated. ns, not significant. […] Purified CD44^+ HPCa202 cells were infected with Lenti-ctl or Lenti-141 (MOI 10, 72 h) and plated for clonal assay (1K) or sphere assays in Matrigel (1L & 1M). For 1st generation (1°) sphere assays, 1,000 cells per well were plated in triplicate for each group in 12-well plate and results scored in 11 days. For 2nd generation (2°), the 1° spheres were harvested, digested with Collagenase and Trypsin into single cells, 1,000 cells/well were plated, and results scored in 10 days. Quantification of the colonies was plotted (1 L; **P<0.01).
(§2) Du145, LNCaP, PC3, PPC-1, VCaP cells were obtained from […] and cultured in RPMI-1640 (Life Technologies, Carlsbad, Calif.) plus 7% fetal bovine serum (FBS) with the exception of VCaP, which were cultured in Dulbecco's Modified Eagles Medium (DMEM, Life Technologies) supplemented with 15% fetal bovine serum. Human xenograft prostate tumors, LAPC9 [bone metastasis; positive for androgen receptor (AR) and prostate-specific antigen (PSA)], LAPC4 (lymph node metastasis; AR+ and PSA+), and Du145 ([…]; AR− and PSA−) were maintained in NOD/SCID mice. These cell and xenograft lines, which have been routinely utilized (13, 14, 18, 20, 21, 23, 25, 33) and authenticated by institutional CCSG Cell Line Characterization Core using short tandem repeat (STR) analysis and checked to be free of mycoplasma contamination using the Agilent (Santa Clara, Calif.) MycoSensor QPCR Assay Kit (cat.#302107). NOD/SCID mice were produced mostly from breeding colonies with occasional purchases from the Jackson Laboratories and maintained in standard conditions according to the Institutional Guidelines. All animal experiments were approved by Institutional Animal Care and Use Committee.
(§3) As the CD44^+ prostate cancer cells are prominently devoid of miR-141, its expression in CD44^+ prostate cancer cells was restored and then cancer stem cell assays including stringent clonal (holoclone) and single cell-derived sphere-formation assays (13, 14, 23, 25, 33) were performed. […]

[3] = tested on: bulk Du145 cells; assay: In vivo tumor regeneration assay; parameters: species or system NOD/SCID mice; conditions: miR-141 over-expression in bulk cells; 100,000 cells per injection
Method: as §1, §2, §3

[4] = tested on: epithelial to mesenchymal transition markers in Du145 cells; assay: qPCR analysis of epithelial to mesenchymal transition markers; type: cell-based, human
Method: FIGS. 3A-3J show partial suppression of epithelial to mesenchymal transition by miR-141 and CD44 as a direct target of miR-141. FIGS. 3A-3B show qPCR analysis of epithelial to mesenchymal transition markers in bulk (FIG. 3A) or CD44^+ (FIG. 3B) Du145 cells transfected with the miR-141 oligos (30 nM; 48 h). Results were presented as the relative expression levels over the cells transfected with the NC oligos. […] GAPDH was used as control and the relative protein levels after normalizing to GAPDH and NC controls were indicated below each lane. […] Shown below is the actual sequence in the region with the mutated miR-141 binding sequence indicated in grey (below). […] Shown are representative images. […] Du145 cells were co-transfected with NC or miR-141 oligos (30 nM) together with pBabe empty vector or pBabe-CD44 vector. After 48 h, cells were harvested for invasion assays. Bars, mean±SD. *, P<0.05; **, P<0.01.
Total RNA was extracted using microRNA isolation kit (Life Technologies) according to the manufacturer's instructions. microRNA qPCRs were performed using TaqMan microRNA assays (Life Technologies). qPCR data for microRNAs were normalized to RNU48 whereas qPCR data for mRNAs were normalized to GAPDH.

“miR-141: miR-141 mirVana mimics (Life Technologies); microRNA-141 oligonucleotide may have SEQ ID NO: 1; in some experiments over-expressed by lentiviral vectors (UAACACUGUCUGGUAAAGAUGG; listed as RNA, further chemistry not given here) [miR-141 mirVana mimics (Life Technologies); in some experiments over-expressed by lentiviral vectors]” was tested, and the clonal expansion [1] was “inhibited”, the sphere formation [1] was “inhibited” and the tumor regeneration [2] was “suppressed tumor regeneration”. The tumor regeneration [3] was “suppressed tumor regeneration”, the “E-cadherin (CDH1) mRNA” value ([4]; CD44+ Du145 cells, 30 nM, 48 h) was “significant increase” and the “mRNA levels of mesenchymal markers including VIM and ZEB1” value ([4]; CD44+ Du145 cells, 30 nM, 48 h) was “generally reduced”. The “mRNA levels of most other EMT markers including FN, ZEB2, SNAI1, SNAI2, and TWIST” value ([4]; bulk Du145 cells) was “did not reduce”, the “E-cadherin mRNA” value ([4]; bulk Du145 cells, 30 nM, 48 h) was “increased” and the “VIM and ZEB1 mRNA” value ([4]; bulk Du145 cells, 30 nM, 48 h) was “decreased”.

From patent US10202604B2, “Methods of using microRNA-141” (Stemirna Therapeutics Co., Ltd., priority 2016, dated 2019)
